# Source: PubChem BioAssay (NCI)
#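 Briefly, cells in 96-well plates were exposed to five compound concentrations for 48 h, and endpoints were estimated by linear interpolation. TGI marks complete inhibition of growth.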
# Experiments:
# Test in all cases: growth of human tumour cells (NCI), 48 h
# TK-10 renal = system: TK-10 renal
# UACC-62 melanoma = system: UACC-62 melanoma
# KM12 colon = system: KM12 colon
# K-562 leukemia = system: K-562 leukemia
# RPMI-8226 leukemia = system: RPMI-8226 leukemia
# NCI-H226 lung = system: NCI-H226 lung
# M14 melanoma = system: M14 melanoma
# OVCAR-5 ovarian = system: OVCAR-5 ovarian
# SF-539 CNS = system: SF-539 CNS
# COLO 205 colon = system: COLO 205 colon
# HOP-62 NSCLC = system: HOP-62 NSCLC
# HL-60(TB) leukemia = system: HL-60(TB) leukemia
# SK-MEL-2 melanoma = system: SK-MEL-2 melanoma
# NCI-H460 lung = system: NCI-H460 lung
# OVCAR-8 ovarian = system: OVCAR-8 ovarian
# SW-620 colon = system: SW-620 colon
# SNB-19 CNS = system: SNB-19 CNS
# SNB-75 CNS = system: SNB-75 CNS
# CAKI-1 renal = system: CAKI-1 renal
# SN12C renal = system: SN12C renal
# EKVX NSCLC = system: EKVX NSCLC
# LOX IMVI melanoma = system: LOX IMVI melanoma
# UACC-257 melanoma = system: UACC-257 melanoma
# HCC-2998 colon = system: HCC-2998 colon
# MALME-3M melanoma = system: MALME-3M melanoma
# A549 NSCLC = system: A549 NSCLC
# M19-MEL melanoma = system: M19-MEL melanoma
# MOLT-4 leukemia = system: MOLT-4 leukemia
# IGROV1 ovarian = system: IGROV1 ovarian
# HCT-116 colon = system: HCT-116 colon
# SF-268 CNS = system: SF-268 CNS
# ACHN renal = system: ACHN renal
# OVCAR-3 ovarian = system: OVCAR-3 ovarian
# RXF 393 renal = system: RXF 393 renal
# HCT-15 colon = system: HCT-15 colon
# KM20L2 colon = system: KM20L2 colon
# HOP-92 NSCLC = system: HOP-92 NSCLC
# UO-31 renal = system: UO-31 renal
# SR leukemia = system: SR leukemia
# SNB-78 CNS = system: SNB-78 CNS
# NCI-H23 lung = system: NCI-H23 lung
# SF-295 CNS = system: SF-295 CNS
# SK-MEL-5 melanoma = system: SK-MEL-5 melanoma
# SK-OV-3 ovarian = system: SK-OV-3 ovarian
# U251 CNS = system: U251 CNS
# SK-MEL-28 melanoma = system: SK-MEL-28 melanoma
# CCRF-CEM leukemia = system: CCRF-CEM leukemia
# A498 renal = system: A498 renal
# 786-0 renal = system: 786-0 renal
# HT29 colon = system: HT29 colon
# OVCAR-4 ovarian = system: OVCAR-4 ovarian
# DMS 114 small cell lung = system: DMS 114 small cell lung
# NCI-H522 lung = system: NCI-H522 lung
# DMS 273 small cell lung = system: DMS 273 small cell lung
# DLD-1 colon = system: DLD-1 colon
# BT-549 breast = system: BT-549 breast
# HS 578T breast = system: HS 578T breast
# PC-3 prostate = system: PC-3 prostate
# T-47D breast = system: T-47D breast
# MCF7 breast = system: MCF7 breast
# NCI/ADR-RES ovarian = system: NCI/ADR-RES ovarian
# DU-145 prostate = system: DU-145 prostate
# MDA-MB-435 = system: MDA-MB-435
# MDA-MB-231 breast = system: MDA-MB-231 breast
# MDA-N = system: MDA-N
smiles,measurement,setting,value
C=CCCCC(C#N)(c1ccccc1)N1CCCC1 (stereo not drawn),TGI,TK-10 renal,> 100 µM
same,TGI,UACC-62 melanoma,> 100 µM
same,TGI,KM12 colon,> 100 µM
same,TGI,K-562 leukemia,> 100 µM
same,TGI,RPMI-8226 leukemia,> 100 µM
same,TGI,NCI-H226 lung,> 100 µM
same,TGI,M14 melanoma,> 100 µM
same,TGI,OVCAR-5 ovarian,> 100 µM
same,TGI,SF-539 CNS,> 100 µM
same,TGI,COLO 205 colon,> 100 µM
same,TGI,HOP-62 NSCLC,> 100 µM
same,TGI,HL-60(TB) leukemia,> 100 µM
same,TGI,SK-MEL-2 melanoma,> 100 µM
same,TGI,NCI-H460 lung,> 100 µM
same,TGI,OVCAR-8 ovarian,> 100 µM
same,TGI,SW-620 colon,> 100 µM
same,TGI,SNB-19 CNS,> 100 µM
same,TGI,SNB-75 CNS,> 100 µM
same,TGI,CAKI-1 renal,> 100 µM
same,TGI,SN12C renal,> 100 µM
same,TGI,EKVX NSCLC,> 100 µM
same,TGI,LOX IMVI melanoma,> 100 µM
same,TGI,UACC-257 melanoma,> 100 µM
same,TGI,HCC-2998 colon,> 100 µM
same,TGI,MALME-3M melanoma,> 100 µM
same,TGI,A549 NSCLC,> 100 µM
same,TGI,M19-MEL melanoma,> 100 µM
same,TGI,MOLT-4 leukemia,> 100 µM
same,TGI,IGROV1 ovarian,> 100 µM
same,TGI,HCT-116 colon,> 100 µM
same,TGI,SF-268 CNS,> 100 µM
same,TGI,ACHN renal,> 100 µM
same,TGI,OVCAR-3 ovarian,> 100 µM
same,TGI,RXF 393 renal,> 100 µM
same,TGI,HCT-15 colon,> 100 µM
same,TGI,KM20L2 colon,> 100 µM
same,TGI,HOP-92 NSCLC,> 100 µM
same,TGI,UO-31 renal,> 100 µM
same,TGI,SR leukemia,> 100 µM
same,TGI,SNB-78 CNS,> 100 µM
same,TGI,NCI-H23 lung,> 100 µM
same,TGI,SF-295 CNS,> 100 µM
same,TGI,SK-MEL-5 melanoma,> 100 µM
same,TGI,SK-OV-3 ovarian,> 100 µM
same,TGI,U251 CNS,> 100 µM
same,TGI,SK-MEL-28 melanoma,> 100 µM
same,TGI,CCRF-CEM leukemia,> 100 µM
same,TGI,A498 renal,> 100 µM
same,TGI,786-0 renal,> 100 µM
same,TGI,HT29 colon,> 100 µM
same,TGI,OVCAR-4 ovarian,> 100 µM
same,TGI,DMS 114 small cell lung,> 100 µM
same,TGI,NCI-H522 lung,> 100 µM
same,TGI,DMS 273 small cell lung,> 100 µM
C[N+](C)(C)CC(=O)N/N=C(/Cc1nc2ccc(Cl)cc2[nH]c1=O)C1=NS(=O)(=O)c2cc(S(N)(=O)=O)c(Cl)cc2N1,TGI,TK-10 renal,> 100 µM
same,TGI,UACC-62 melanoma,> 100 µM
same,TGI,KM12 colon,> 100 µM
same,TGI,K-562 leukemia,> 100 µM
same,TGI,RPMI-8226 leukemia,> 100 µM
same,TGI,OVCAR-5 ovarian,> 100 µM
same,TGI,SF-539 CNS,> 100 µM
same,TGI,COLO 205 colon,> 100 µM
same,TGI,HOP-62 NSCLC,> 100 µM
same,TGI,HL-60(TB) leukemia,> 100 µM
same,TGI,SK-MEL-2 melanoma,> 100 µM
same,TGI,NCI-H460 lung,> 100 µM
same,TGI,OVCAR-8 ovarian,> 100 µM
same,TGI,SW-620 colon,> 100 µM
same,TGI,SNB-19 CNS,> 100 µM
same,TGI,SN12C renal,> 100 µM
same,TGI,EKVX NSCLC,> 100 µM
same,TGI,UACC-257 melanoma,> 100 µM
same,TGI,HCC-2998 colon,> 100 µM
same,TGI,MALME-3M melanoma,> 100 µM
same,TGI,A549 NSCLC,> 100 µM
same,TGI,M19-MEL melanoma,> 100 µM
same,TGI,MOLT-4 leukemia,> 100 µM
same,TGI,DLD-1 colon,> 100 µM
same,TGI,IGROV1 ovarian,> 100 µM
same,TGI,HCT-116 colon,> 100 µM
same,TGI,SF-268 CNS,> 100 µM
same,TGI,ACHN renal,> 100 µM
same,TGI,OVCAR-3 ovarian,> 100 µM
same,TGI,RXF 393 renal,> 100 µM
same,TGI,KM20L2 colon,> 100 µM
same,TGI,UO-31 renal,> 100 µM
same,TGI,SR leukemia,> 100 µM
same,TGI,NCI-H23 lung,> 100 µM
same,TGI,SF-295 CNS,> 100 µM
same,TGI,SK-MEL-5 melanoma,> 100 µM
same,TGI,SK-OV-3 ovarian,> 100 µM
same,TGI,SK-MEL-28 melanoma,> 100 µM
same,TGI,CCRF-CEM leukemia,> 100 µM
same,TGI,A498 renal,> 100 µM
same,TGI,786-0 renal,> 100 µM
same,TGI,HT29 colon,> 100 µM
same,TGI,OVCAR-4 ovarian,> 100 µM
same,TGI,DMS 114 small cell lung,> 100 µM
same,TGI,NCI-H522 lung,> 100 µM
CC(C)OC(=O)c1ccc(CCc2cc(O)c(Br)cc2O)cc1,TGI,TK-10 renal,30.6 µM
same,TGI,UACC-62 melanoma,34.4 µM
same,TGI,KM12 colon,18.1 µM
same,TGI,K-562 leukemia,> 58.9 µM
same,TGI,RPMI-8226 leukemia,8.18 µM
same,TGI,NCI-H226 lung,39.8 µM
same,TGI,M14 melanoma,29.9 µM
same,TGI,BT-549 breast,30 µM
same,TGI,HS 578T breast,42.1 µM
same,TGI,OVCAR-5 ovarian,31.8 µM
same,TGI,SF-539 CNS,15.7 µM
same,TGI,COLO 205 colon,28.7 µM
same,TGI,HOP-62 NSCLC,24.7 µM
same,TGI,HL-60(TB) leukemia,38.9 µM
same,TGI,SK-MEL-2 melanoma,26.7 µM
same,TGI,NCI-H460 lung,34.5 µM
same,TGI,OVCAR-8 ovarian,29.5 µM
same,TGI,SW-620 colon,22 µM
same,TGI,SNB-19 CNS,27.9 µM
same,TGI,SNB-75 CNS,46.5 µM
same,TGI,CAKI-1 renal,25 µM
same,TGI,PC-3 prostate,19.2 µM
same,TGI,SN12C renal,28.9 µM
same,TGI,T-47D breast,53.2 µM
same,TGI,MCF7 breast,29.4 µM
same,TGI,EKVX NSCLC,29.4 µM
same,TGI,LOX IMVI melanoma,20.8 µM
same,TGI,UACC-257 melanoma,26.4 µM
same,TGI,HCC-2998 colon,29.6 µM
same,TGI,MALME-3M melanoma,31.1 µM
same,TGI,NCI/ADR-RES ovarian,25.5 µM
same,TGI,A549 NSCLC,44.8 µM
same,TGI,MOLT-4 leukemia,52.1 µM
same,TGI,IGROV1 ovarian,23.1 µM
same,TGI,HCT-116 colon,25.3 µM
same,TGI,SF-268 CNS,25.6 µM
same,TGI,ACHN renal,31.9 µM
same,TGI,OVCAR-3 ovarian,19.5 µM
same,TGI,RXF 393 renal,28.3 µM
same,TGI,HCT-15 colon,14 µM
same,TGI,DU-145 prostate,28.6 µM
same,TGI,HOP-92 NSCLC,35.2 µM
same,TGI,UO-31 renal,10.2 µM
same,TGI,SR leukemia,64.9 µM
same,TGI,NCI-H23 lung,22.8 µM
same,TGI,SF-295 CNS,32.3 µM
same,TGI,SK-MEL-5 melanoma,28.3 µM
same,TGI,MDA-MB-435,20.8 µM
same,TGI,MDA-MB-231 breast,26.7 µM
same,TGI,SK-OV-3 ovarian,35.6 µM
same,TGI,U251 CNS,17.5 µM
same,TGI,SK-MEL-28 melanoma,26.9 µM
same,TGI,CCRF-CEM leukemia,14.3 µM
same,TGI,A498 renal,41.8 µM
same,TGI,786-0 renal,25.4 µM
same,TGI,HT29 colon,37.4 µM
same,TGI,OVCAR-4 ovarian,5.54 µM
same,TGI,NCI-H522 lung,23.8 µM
same,TGI,MDA-N,24 µM
